# US10479777B2, “Herbicidal azines” (BASF SE, priority 2013, dated 2019)
# Assays:
# Format in all cases: in vivo
# Abutilon theophrasti = experiment: greenhouse test, pre-emergence treatment; settings: scale from 0 to 100
# Excerpt: (§1) The culture containers used were plastic flowerpots containing loamy sand with approximately 3.0% of humus as the substrate. The seeds of the test plants were sown separately for each species.
# (§2) For the pre-emergence treatment, the active ingredients, which had been suspended or emulsified in water, were applied directly after sowing by means of finely distributing nozzles. The containers were irrigated gently to promote germination and growth and subsequently covered with transparent plastic hoods until the plants had rooted. This cover caused uniform germination of the test plants, unless this had been impaired by the active ingredients. For the post-emergence treatment, the test plants were first grown to a height of 3 to 15 cm, depending on the plant habit, and only then treated with the active ingredients which had been suspended or emulsified in water. For this purpose, the test plants were either sown directly and grown in the same containers, or they were first grown separately as seedlings and transplanted into the test containers a few days prior to treatment.
# (§3) Depending on the species, the plants were kept at 10-25° C. or 20-35° C., respectively. The test period extended over 2 to 4 weeks. During this time, the plants were tended, and their response to the individual treatments was evaluated.
# (§4) Evaluation was carried out using a scale from 0 to 100. 100 means no emergence of the plants, or complete destruction of at least the aerial moieties, and 0 means no damage, or normal course of growth. A moderate herbicidal activity is given at values of at least 60, a good herbicidal activity is given at values of at least 70, and a very good herbicidal activity is given at values of at least 85.
# (§5) The plants used in the greenhouse experiments were of the following species: […]
# Setaria faberi = experiment: greenhouse test, pre-emergence treatment; settings: scale from 0 to 100
# Excerpt: as §1, §2, §3, §4, §5
# Amaranthus retroflexus = experiment: greenhouse test, pre-emergence treatment; settings: scale from 0 to 100
# Excerpt: as §1, §2, §3, §4, §5
# Setaria viridis [1] = experiment: greenhouse test, pre-emergence treatment; settings: 125 g/ha, scale from 0 to 100
# Excerpt: as §1, §2, §3, §4, §5
# Echinocloa crus-galli = experiment: greenhouse test, pre-emergence treatment; settings: scale from 0 to 100
# Excerpt: as §1, §2, §3, §4, §5
# Setaria viridis [2] = experiment: greenhouse test, post-emergence treatment; settings: 1104 g/ha, scale from 0 to 100
# Excerpt: as §1, §2, §3, §4, §5
# Apera spica-venti = experiment: greenhouse test, pre-emergence treatment; settings: scale from 0 to 100
# Excerpt: as §1, §2, §3, §4, §5
compound,measurement,setting,value
CCC(C)(F)c1nc(N)nc(Nc2nc(F)c(F)cc2F)n1 (racemic) [Example 14],herbicidal activity,Abutilon theophrasti; 62.5 g/ha,very good (a very good herbicidal activity is given at values of at least 85)
same,herbicidal activity,Setaria faberi; 62.5 g/ha,very good (a very good herbicidal activity is given at values of at least 85)
same,herbicidal activity,Amaranthus retroflexus; 62.5 g/ha,very good (a very good herbicidal activity is given at values of at least 85)
CC(C)(F)c1nc(N)nc(Nc2nc(F)c(F)c(Cl)c2F)n1 [Example 5],herbicidal activity,Setaria viridis [1],very good (a very good herbicidal activity is given at values of at least 85)
same,herbicidal activity,Amaranthus retroflexus; 125 g/ha,very good (a very good herbicidal activity is given at values of at least 85)
same,herbicidal activity,Echinocloa crus-galli; 125 g/ha,very good (a very good herbicidal activity is given at values of at least 85)
Nc1nc(Nc2nc(F)c(F)c(Cl)c2F)nc(C2(Cl)CCCC2)n1 [Example 11],herbicidal activity,Abutilon theophrasti; 500 g/ha,very good (a very good herbicidal activity is given at values of at least 85)
same,herbicidal activity,Setaria faberi; 500 g/ha,very good (a very good herbicidal activity is given at values of at least 85)
same,herbicidal activity,Amaranthus retroflexus; 500 g/ha,very good (a very good herbicidal activity is given at values of at least 85)
Nc1nc(Nc2nc(F)c(F)c(Cl)c2F)nc(C2(F)CCCC2)n1 [Example 12],herbicidal activity,Setaria faberi; 125 g/ha,very good (a very good herbicidal activity is given at values of at least 85)
same,herbicidal activity,Amaranthus retroflexus; 125 g/ha,very good (a very good herbicidal activity is given at values of at least 85)
same,herbicidal activity,Echinocloa crus-galli; 125 g/ha,very good (a very good herbicidal activity is given at values of at least 85)
CCC(C)(F)c1nc(N)nc(Nc2nc(F)c(F)c(Cl)c2F)n1 (centres unmarked) [Example 13],herbicidal activity,Setaria faberi; 62.5 g/ha,very good (a very good herbicidal activity is given at values of at least 85)
same,herbicidal activity,Amaranthus retroflexus; 62.5 g/ha,very good (a very good herbicidal activity is given at values of at least 85)
same,herbicidal activity,Echinocloa crus-galli; 62.5 g/ha,very good (a very good herbicidal activity is given at values of at least 85)
Nc1nc(Nc2nc(F)c(F)c(Cl)c2F)nc(C2CCCC2)n1 [Example 17],herbicidal activity,Amaranthus retroflexus; 250 g/ha,good (a good herbicidal activity is given at values of at least 70)
COC(C)(C)c1nc(N)nc(Nc2nc(F)c(F)c(Cl)c2F)n1 [Example 22],herbicidal activity,Amaranthus retroflexus; 250 g/ha,very good (a very good herbicidal activity is given at values of at least 85)
Cc1c(F)c(F)nc(Nc2nc(N)nc(C(C)(C)F)n2)c1F [Example 29],herbicidal activity,Abutilon theophrasti; 125 g/ha,very good (a very good herbicidal activity is given at values of at least 85)
same,herbicidal activity,Setaria faberi; 125 g/ha,very good (a very good herbicidal activity is given at values of at least 85)
same,herbicidal activity,Amaranthus retroflexus; 125 g/ha,very good (a very good herbicidal activity is given at values of at least 85)
CCC(F)(CC)c1nc(N)nc(Nc2nc(F)c(F)c(Cl)c2F)n1 [Example 30],herbicidal activity,Setaria faberi; 250 g/ha,very good (a very good herbicidal activity is given at values of at least 85)
same,herbicidal activity,Amaranthus retroflexus; 250 g/ha,very good (a very good herbicidal activity is given at values of at least 85)
same,herbicidal activity,Echinocloa crus-galli; 250 g/ha,very good (a very good herbicidal activity is given at values of at least 85)
COc1c(F)c(F)nc(Nc2nc(N)nc(C(C)(C)F)n2)c1F [Example 31],herbicidal activity,Abutilon theophrasti; 250 g/ha,very good (a very good herbicidal activity is given at values of at least 85)
same,herbicidal activity,Setaria faberi; 250 g/ha,very good (a very good herbicidal activity is given at values of at least 85)
same,herbicidal activity,Amaranthus retroflexus; 250 g/ha,very good (a very good herbicidal activity is given at values of at least 85)
CC(C)C(F)c1nc(N)nc(Nc2nc(F)c(F)c(Cl)c2F)n1 (centres unmarked) [Example 32],herbicidal activity,Setaria faberi; 125 g/ha,very good (a very good herbicidal activity is given at values of at least 85)
same,herbicidal activity,Amaranthus retroflexus; 125 g/ha,very good (a very good herbicidal activity is given at values of at least 85)
same,herbicidal activity,Echinocloa crus-galli; 125 g/ha,very good (a very good herbicidal activity is given at values of at least 85)
CC(C)Oc1cccnc1Nc1nc(N)nc(C(F)(F)F)n1 [Example 36],herbicidal activity,Setaria viridis [2],very good (a very good herbicidal activity is given at values of at least 85)
CC(C)(F)c1nc(N)nc(Nc2nc(F)c(F)c(OS(C)(=O)=O)c2F)n1 [Example 37],herbicidal activity,Apera spica-venti; 250 g/ha,good (a good herbicidal activity is given at values of at least 70)
same,herbicidal activity,Amaranthus retroflexus; 250 g/ha,very good (a very good herbicidal activity is given at values of at least 85)
CC(C)(F)c1nc(N)nc(Nc2c(F)ccnc2F)n1 [Example 48],herbicidal activity,Amaranthus retroflexus; 125 g/ha,very good (a very good herbicidal activity is given at values of at least 85)
Nc1nc(Nc2c(F)c(F)nc(F)c2F)nc(C(F)(F)F)n1 [Example 50],herbicidal activity,Apera spica-venti; 500 g/ha,good (a good herbicidal activity is given at values of at least 70)
same,herbicidal activity,Amaranthus retroflexus; 500 g/ha,very good (a very good herbicidal activity is given at values of at least 85)
CCC(C)(F)c1nc(N)nc(Nc2c(F)c(F)nc(F)c2F)n1 (centres unmarked) [Example 52],herbicidal activity,Abutilon theophrasti; 250 g/ha,very good (a very good herbicidal activity is given at values of at least 85)
same,herbicidal activity,Amaranthus retroflexus; 250 g/ha,very good (a very good herbicidal activity is given at values of at least 85)
same,herbicidal activity,Echinocloa crus-galli; 250 g/ha,very good (a very good herbicidal activity is given at values of at least 85)
CC(C)(F)c1nc(N)nc(Nc2c(F)cncc2F)n1 [Example 54],herbicidal activity,Apera spica-venti; 62 g/ha,very good (a very good herbicidal activity is given at values of at least 85)
same,herbicidal activity,Amaranthus retroflexus; 62 g/ha,very good (a very good herbicidal activity is given at values of at least 85)
CC(C)(C#N)c1nc(N)nc(Nc2c(F)c(F)nc(F)c2F)n1 [Example 57],herbicidal activity,Abutilon theophrasti; 250 g/ha,very good (a very good herbicidal activity is given at values of at least 85)
same,herbicidal activity,Amaranthus retroflexus; 250 g/ha,very good (a very good herbicidal activity is given at values of at least 85)
Nc1nc(Nc2c(F)c(F)nc(F)c2F)nc(C2(Cl)CCCC2)n1 [Example 58],herbicidal activity,Setaria faberi; 250 g/ha,very good (a very good herbicidal activity is given at values of at least 85)
same,herbicidal activity,Amaranthus retroflexus; 250 g/ha,very good (a very good herbicidal activity is given at values of at least 85)
same,herbicidal activity,Echinocloa crus-galli; 250 g/ha,very good (a very good herbicidal activity is given at values of at least 85)
COC(C)c1nc(N)nc(Nc2c(F)c(F)nc(F)c2F)n1 (centres unmarked) [Example 61],herbicidal activity,Abutilon theophrasti; 500 g/ha,very good (a very good herbicidal activity is given at values of at least 85)
same,herbicidal activity,Amaranthus retroflexus; 500 g/ha,very good (a very good herbicidal activity is given at values of at least 85)
CC(C)(C)c1nc(N)nc(Nc2c(F)c(F)nc(F)c2F)n1 [Example 62],herbicidal activity,Abutilon theophrasti; 250 g/ha,very good (a very good herbicidal activity is given at values of at least 85)
same,herbicidal activity,Setaria faberi; 250 g/ha,very good (a very good herbicidal activity is given at values of at least 85)
same,herbicidal activity,Amaranthus retroflexus; 250 g/ha,very good (a very good herbicidal activity is given at values of at least 85)
CCC(F)c1nc(N)nc(Nc2c(F)c(F)nc(F)c2F)n1 (centres unmarked) [Example 63],herbicidal activity,Abutilon theophrasti; 125 g/ha,very good (a very good herbicidal activity is given at values of at least 85)
same,herbicidal activity,Setaria faberi; 125 g/ha,very good (a very good herbicidal activity is given at values of at least 85)
same,herbicidal activity,Amaranthus retroflexus; 125 g/ha,very good (a very good herbicidal activity is given at values of at least 85)
CC1CCC(c2nc(N)nc(Nc3c(F)c(F)nc(F)c3F)n2)CC1 (centres unmarked) [Example 64],herbicidal activity,Abutilon theophrasti; 250 g/ha,very good (a very good herbicidal activity is given at values of at least 85)
same,herbicidal activity,Setaria faberi; 250 g/ha,very good (a very good herbicidal activity is given at values of at least 85)
same,herbicidal activity,Amaranthus retroflexus; 250 g/ha,very good (a very good herbicidal activity is given at values of at least 85)
Nc1nc(Nc2c(F)c(F)nc(F)c2F)nc(C2(F)CCCC2)n1 [Example 66],herbicidal activity,Abutilon theophrasti; 250 g/ha,very good (a very good herbicidal activity is given at values of at least 85)
same,herbicidal activity,Setaria faberi; 250 g/ha,very good (a very good herbicidal activity is given at values of at least 85)
same,herbicidal activity,Amaranthus retroflexus; 250 g/ha,very good (a very good herbicidal activity is given at values of at least 85)
CC1(c2nc(N)nc(Nc3c(F)c(F)nc(F)c3F)n2)CCCC1 [Example 67],herbicidal activity,Amaranthus retroflexus; 250 g/ha,very good (a very good herbicidal activity is given at values of at least 85)
CC1(c2nc(N)nc(Nc3c(F)c(F)nc(F)c3F)n2)CCCCC1 [Example 68],herbicidal activity,Amaranthus retroflexus; 250 g/ha,very good (a very good herbicidal activity is given at values of at least 85)
CCC(C)c1nc(N)nc(Nc2c(F)c(F)nc(F)c2F)n1 (centres unmarked) [Example 69],herbicidal activity,Abutilon theophrasti; 125 g/ha,very good (a very good herbicidal activity is given at values of at least 85)
same,herbicidal activity,Amaranthus retroflexus; 125 g/ha,very good (a very good herbicidal activity is given at values of at least 85)
Nc1nc(Nc2c(F)c(F)nc(F)c2F)nc(C2(F)CCC2)n1 [Example 70],herbicidal activity,Apera spica-venti; 1000 g/ha,good (a good herbicidal activity is given at values of at least 70)
same,herbicidal activity,Amaranthus retroflexus; 1000 g/ha,very good (a very good herbicidal activity is given at values of at least 85)
CCC(F)(CC)c1nc(N)nc(Nc2c(F)c(F)nc(F)c2F)n1 [Example 71],herbicidal activity,Abutilon theophrasti; 250 g/ha,very good (a very good herbicidal activity is given at values of at least 85)
same,herbicidal activity,Setaria faberi; 250 g/ha,very good (a very good herbicidal activity is given at values of at least 85)
same,herbicidal activity,Amaranthus retroflexus; 250 g/ha,very good (a very good herbicidal activity is given at values of at least 85)
